Measurements as given in ChEMBL document CHEMBL2074166, “Transport of fluorescein in MDCKII-MRP1 transfected cells and mrp1-knockout mice” (Biochem Biophys Res Commun, 2001).

Target: Multidrug resistance-associated protein 1 (Homo sapiens, UniProt P33527)
Experiment: TP_TRANSPORTER: intracellular accumulation in MRP1-expressing MDCKII cells
Type: functional, cell-based
Settings: dog, mdck-ii

Chain of Multidrug resistance-associated protein 1 (P33527 whole entry): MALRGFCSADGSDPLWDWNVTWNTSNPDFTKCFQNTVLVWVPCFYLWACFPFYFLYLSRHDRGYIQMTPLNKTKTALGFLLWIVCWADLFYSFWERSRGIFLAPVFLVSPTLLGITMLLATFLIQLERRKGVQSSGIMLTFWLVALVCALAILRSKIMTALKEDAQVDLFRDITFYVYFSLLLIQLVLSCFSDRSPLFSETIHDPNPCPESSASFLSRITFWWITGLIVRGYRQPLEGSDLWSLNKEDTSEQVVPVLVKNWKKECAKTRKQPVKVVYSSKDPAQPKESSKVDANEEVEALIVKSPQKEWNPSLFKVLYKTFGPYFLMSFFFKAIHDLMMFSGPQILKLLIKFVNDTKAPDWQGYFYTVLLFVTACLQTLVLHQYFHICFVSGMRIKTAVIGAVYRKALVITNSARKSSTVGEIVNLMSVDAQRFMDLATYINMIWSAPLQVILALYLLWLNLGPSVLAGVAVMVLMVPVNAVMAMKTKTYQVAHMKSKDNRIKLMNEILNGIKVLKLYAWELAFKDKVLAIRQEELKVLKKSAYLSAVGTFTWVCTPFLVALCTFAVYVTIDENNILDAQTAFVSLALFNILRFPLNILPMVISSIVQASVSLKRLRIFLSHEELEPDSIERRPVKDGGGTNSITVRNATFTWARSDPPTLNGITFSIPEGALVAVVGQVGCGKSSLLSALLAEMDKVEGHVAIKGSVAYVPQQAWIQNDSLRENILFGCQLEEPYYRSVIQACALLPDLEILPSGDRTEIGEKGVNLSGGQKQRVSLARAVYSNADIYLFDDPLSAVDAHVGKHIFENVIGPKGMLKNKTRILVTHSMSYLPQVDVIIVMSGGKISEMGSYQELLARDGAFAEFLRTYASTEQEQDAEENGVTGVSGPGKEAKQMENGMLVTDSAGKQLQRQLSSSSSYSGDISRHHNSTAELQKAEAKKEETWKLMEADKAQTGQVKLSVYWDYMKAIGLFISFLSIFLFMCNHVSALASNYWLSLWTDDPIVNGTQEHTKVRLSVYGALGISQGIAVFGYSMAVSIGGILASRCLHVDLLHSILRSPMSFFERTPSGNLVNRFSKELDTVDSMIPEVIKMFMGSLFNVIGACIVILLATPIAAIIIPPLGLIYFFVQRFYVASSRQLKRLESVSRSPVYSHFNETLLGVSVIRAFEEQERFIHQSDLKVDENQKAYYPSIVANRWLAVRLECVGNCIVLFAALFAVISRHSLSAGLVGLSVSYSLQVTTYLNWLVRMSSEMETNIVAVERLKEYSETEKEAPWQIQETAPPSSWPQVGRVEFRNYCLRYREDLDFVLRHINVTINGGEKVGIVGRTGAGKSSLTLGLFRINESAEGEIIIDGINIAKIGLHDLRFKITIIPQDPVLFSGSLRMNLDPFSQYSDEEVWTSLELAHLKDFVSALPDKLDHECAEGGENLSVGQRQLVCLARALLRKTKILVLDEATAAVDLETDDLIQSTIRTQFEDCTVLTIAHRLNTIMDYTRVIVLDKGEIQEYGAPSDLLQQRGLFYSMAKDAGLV

- Activity: substrate [+]
SMILES: O=C1OC2(c3ccc(O)cc3Oc3cc(O)ccc32)c2ccccc21 [FLUORESCEIN]
